Tests used:
[1] = target: T1, Adenosine receptor A3 (Homo sapiens, UniProt P0DMS8); assay: Ability to displace radioligand [125I]AB-MECA from membrane of HEK 293 cells stably transfected with human adenosine A3 receptor cDNA; format: cell membranes, HEK293
T1 sequence (P0DMS8 whole entry): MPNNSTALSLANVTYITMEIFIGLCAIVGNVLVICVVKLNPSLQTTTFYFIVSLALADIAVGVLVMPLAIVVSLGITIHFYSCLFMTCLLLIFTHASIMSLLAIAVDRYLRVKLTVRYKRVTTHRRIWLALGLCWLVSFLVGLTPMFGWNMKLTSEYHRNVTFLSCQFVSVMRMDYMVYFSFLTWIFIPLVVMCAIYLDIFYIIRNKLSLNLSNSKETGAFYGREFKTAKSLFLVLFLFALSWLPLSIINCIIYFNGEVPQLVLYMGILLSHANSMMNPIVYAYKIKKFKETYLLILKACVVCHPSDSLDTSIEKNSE

[2] = target: Adenosine receptor A2a (Rattus norvegicus, UniProt P30543)
[3] = target: T2, Adenosine receptor A2b (Homo sapiens, UniProt P29275); assay: Effective concentration for cAMP production in CHO-KI cells stably transfected with human adenosine A2B receptor cDNA
T2 sequence (P29275 whole entry): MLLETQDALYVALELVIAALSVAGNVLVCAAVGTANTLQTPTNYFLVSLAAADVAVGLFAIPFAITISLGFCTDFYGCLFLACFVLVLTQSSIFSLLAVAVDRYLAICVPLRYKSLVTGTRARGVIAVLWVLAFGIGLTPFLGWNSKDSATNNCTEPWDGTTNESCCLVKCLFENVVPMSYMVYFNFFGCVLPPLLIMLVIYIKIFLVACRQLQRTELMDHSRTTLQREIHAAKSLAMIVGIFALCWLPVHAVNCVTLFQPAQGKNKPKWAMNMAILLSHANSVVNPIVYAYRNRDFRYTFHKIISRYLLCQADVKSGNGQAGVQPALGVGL

[4] = target: T3, Adenosine receptor A1 (Rattus norvegicus, UniProt P25099)
T3 sequence (P25099 whole entry): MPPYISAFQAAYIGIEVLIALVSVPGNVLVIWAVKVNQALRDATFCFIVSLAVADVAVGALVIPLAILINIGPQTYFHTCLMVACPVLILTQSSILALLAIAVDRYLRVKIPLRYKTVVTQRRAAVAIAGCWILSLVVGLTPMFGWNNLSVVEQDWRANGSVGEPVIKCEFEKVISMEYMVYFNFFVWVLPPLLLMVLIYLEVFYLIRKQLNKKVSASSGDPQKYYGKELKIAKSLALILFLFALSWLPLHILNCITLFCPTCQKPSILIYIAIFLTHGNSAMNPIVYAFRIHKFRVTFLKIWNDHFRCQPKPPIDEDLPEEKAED
Description: Ability to displace radioligand [3H]- DPCPX from adenosine A1 receptor on rat cortical membrane in the absence of GTP

[5] = target: T3, Adenosine receptor A1; assay: Ability to displace radioligand [3H]- DPCPX from adenosine A1 receptor on rat cortical membrane in the presence of 1 mM of GTP
[6] = GTP shift was determined
[7] = target: T4, Adenosine receptor A2b (Homo sapiens) (UniProt P29275); assay: Effective concentration for cAMP production in CHO-KI cells expressing human adenosine A2B receptor at 100 uM; format: functional, cell-based
T4 sequence (whole entry): T2 sequence (P29275 whole entry)

Chain of Adenosine receptor A2a (P30543 whole entry): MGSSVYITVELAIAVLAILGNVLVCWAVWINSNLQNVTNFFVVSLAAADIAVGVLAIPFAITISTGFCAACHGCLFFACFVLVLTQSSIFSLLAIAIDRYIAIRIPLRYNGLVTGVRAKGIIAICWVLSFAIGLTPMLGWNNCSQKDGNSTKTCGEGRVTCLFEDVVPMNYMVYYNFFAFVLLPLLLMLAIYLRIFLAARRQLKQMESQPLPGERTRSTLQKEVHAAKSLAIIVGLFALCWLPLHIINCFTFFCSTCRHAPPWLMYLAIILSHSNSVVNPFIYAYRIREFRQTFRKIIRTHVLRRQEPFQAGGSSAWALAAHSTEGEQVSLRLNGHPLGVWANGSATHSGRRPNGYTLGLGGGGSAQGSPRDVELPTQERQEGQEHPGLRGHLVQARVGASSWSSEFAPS

| SMILES | Ki [1] [nM] | Ki [2] [nM] | EC50 [3] [nM] | Ki [4] [nM] | Ki [5] [nM] | GTP shift [6] | Emax [7] [%] |
| --- | --- | --- | --- | --- | --- | --- | --- |
| CC(C)NC(=O)[C@H]1OC(n2cnc3c(N)ncnc32)[C@H](O)[C@@H]1O (some centres not stated) | 211 | 160 | 37000 | 257 | 804 | 3.1 | – |
| CNC(=O)[C@H]1O[C@@H](n2cnc3c(NCc4cccc(I)c4)ncnc32)[C@H](O)[C@@H]1O [IB-MECA] | – | – | 11000 | – | – | – | – |
| CC(C)(C)NC(=O)[C@H]1O[C@@H](n2cnc3c(N)ncnc32)[C@H](O)[C@@H]1O | 8500 | 1340 | – | 2730 | 6950 | 2.6 | 10 |
| CCNC(=S)[C@H]1O[C@@H](n2cnc3c(N)ncnc32)[C@H](O)[C@@H]1O | 569 | 130 | 16000 | 141 | 478 | 3.4 | – |
| Nc1ncnc2c1ncn2[C@@H]1O[C@H](C(=O)NCCCl)[C@@H](O)[C@H]1O | 322 | 410 | 32000 | 248 | 890 | 3.6 | – |

More lines, now with the values ahead:

| Ki [1] [nM] | Ki [2] [nM] | EC50 [3] [nM] | Ki [4] [nM] | Ki [5] [nM] | GTP shift [6] | Emax [7] [%] | SMILES |
| --- | --- | --- | --- | --- | --- | --- | --- |
| 23 | 49 | 33000 | – | – | – | – | Nc1ncnc2c1ncn2[C@@H]1O[C@H](C(=O)NC2CCC2)[C@@H](O)[C@H]1O |
| 2280 | 130 | 13000 | 137 | 459 | 3.4 | – | Nc1ncnc2c1ncn2[C@@H]1O[C@H](C(=S)NC2CC2)[C@@H](O)[C@H]1O |
| 108 | – | 5300 | – | – | – | – | Nc1ncnc2c1ncn2[C@@H]1O[C@H](C(=O)NC2CC2)[C@@H](O)[C@H]1O |
| 6.4 | – | 45000 | 1080 | 6840 | – | – | CNC(=O)[C@H]1O[C@@H](n2cnc3c(N)ncnc32)[C@H](O)[C@@H]1O |
| 32 | 610 | 54000 | 770 | 4900 | 6.4 | – | Nc1ncnc2c1ncn2[C@@H]1O[C@H](C(=O)NC2CCCC2)[C@@H](O)[C@H]1O |
| 85.3 | 623 | 45000 | 1620 | 1960 | 2.4 | – | CONC(=O)[C@H]1O[C@@H](n2cnc3c(N)ncnc32)[C@H](O)[C@@H]1O |
